Experimental data published in patent US12454550B2, “Compositions and methods for bioorthogonal surface coating” (Rutgers, The State University of New Jersey, priority 2021, dated 2025).
Values after ≈ are worked out from the molar mass of the structure shown. Read-outs that look alike come from different tables or passages of the source.

What was measured:
[1] = Colorimetric assay using ALP on DOPA-Tet coated microcentrifuge tubes; assay type: biochemical; settings: tubes coated with 10 mM DOPA-Tet, treated with enzyme and washed; 1 mg/mL p-NPP, 1 hour, room temperature
Description: For the colorimetric assay using ALP, TBS was chosen as the buffer for washing and testing, because the high concentration of phosphate in PBS could affect the phosphatase activity of ALP. TCO-conjugated ALP (ALP-TCO) was prepared as described elsewhere herein. 0.2 mL microcentrifuge tubes (Bio-Rad Laboratories) were coated with 10 mM DOPA-Tet. The tubes were washed thoroughly with TBS 7.5 and sonicated to remove any loose aggregates. The tubes were grafted with either 0.2 mM ALP-TCO or 0.2 mM ALP, both in TBS 7.5. 50 μL of 1 mg/mL p-NPP in TBS 8.5 was added to each tube and incubated at room temperature for 1 hour. Absorbance at 405 nm was measured on a spectrophotometer (NanoDrop One). Three replicates for each grafted molecule, ALP-TCO or ALP, were prepared and measured.

[2] = Colorimetric assay using GOx/HRP on DOPA-Tet coated microcentrifuge tubes; assay type: biochemical; settings: tubes coated with 10 mM DOPA-Tet, treated with enzymes and washed; 1 mM D-glucose and 1 mM ABTS, 1 hour
Description: TCO-conjugated GOx (GOx-TCO) and HRP (HRP-TCO) were prepared as described above. 0.2 mL microcentrifuge tubes were coated with 10 mM DOPA-Tet. The tubes were washed with PBS and sonicated to help remove any loose aggregates. The tubes were grafted with either 0.2 mM GOx-TCO and 0.2 mM HRP-TCO, or 0.2 mM GOx and 0.2 mM HRP. […] Absorbance at 405 nm was measured on a spectrophotometer (NanoDrop One). Three replicates of each set of enzymes, TCO-conjugated or native, were prepared and measured.

[3] = Coating stability at various pH; assay type: physicochemical; settings: coated glass vials, 5 days at 37° C.
Description: Six 4 mL glass vials (VWR International) were coated with 10 mM DOPA-Tet and incubated for 5 days at 37° C. in 1 mL of either 50 mM MES pH 4.5 (Millipore-Sigma), 100 mM IVIES pH 6.0, PBS, TBS 8.5, 100 mM NaHCO3 pH 9.5 (Millipore-Sigma) or 10% DMSO (Millipore-Sigma) in PBS. After incubation, samples were rinsed with Milli-Q water, dried, and imaged.

[4] = Coating stability in human serum, ALP activity on p-NPP afterwards; assay type: biochemical; settings: DOPA-Tet coated glass vial, 5 days at 37° C. in human serum, then 1 mg/mL p-NPP 1 hour
Description: Two additional 4 mL glass vials were prepared and incubated in human serum. Both samples were coated with 10 mM DOPA-Tet, and one was grafted with 0.2 mM ALP-TCO. Both samples were incubated in 1 mL of human serum from clotted whole blood (Millipore-Sigma) for 5 days at 37° C. After incubation, both samples were washed with PBS and 1 mL of 1 mg/mL p-NPP was added. After incubation for 1 hour at room temperature, both samples were imaged and their absorbance at 405 nm was measured on a spectrophotometer (NanoDrop One).

[5] = system: S. aureus; test: Planktonic bacterial growth inhibition at the surface (PrestoBlue); assay type: cell-based; settings: coated 96-well plate, incubated overnight, resazurin readout
Description: The wells of a non-treated clear 96 well culture plate were either left uncoated or coated with 10 mM DOPA-Tet and then incubated with either vancomycin-TCO, vancomycin, or PBS. […] 100 μL of culture was added to the wells and the plate was covered and incubated at 37° C. for 18 hours, after which 10 μL of PrestoBlue™ was added to each well. After 1 hour incubation, the media was transferred to clean wells and absorbance at 570 nm was recorded using a plate reader.

[6] = system: S. aureus biofilm; test: Biofilm crystal violet assay; assay type: cell-based; settings: coated surfaces incubated with S. aureus for 72 hours
Description: 100 μL of freshly prepared coating solution containing 10 mM DOPATet and 2500 U/mL tyrosinase in PBS was added to the wells of a 96-well plate and incubated at room temperature for 6 hours. […] As described elsewhere herein, S. aureus was grown overnight in TSB, then diluted 1:100 in TSB containing 3% glucose. 300 μL of the dilute bacteria was added to the coated well plate, which was then incubated at 37° C. for 72 hours. After incubation the media was decanted, and the plate was air dried for 5 minutes. 200 μL of 0.9% NaCl in sterile water was gently added to the wells, then decanted, and air dried for 5 minutes. The wells were washed twice more with 0.9% NaCl, and after the final drying, 200 μL methanol was added to each well. The plate was left at room temperature for 15 minutes, then the methanol was decanted and the plate air dried for 5 minutes. 100 μL of 3% crystal violet in sterile water was added to the wells and incubated at room temperature for 20 minutes. The dye was decanted, and the plate air dried. The wells were washed three times with 0.9% NaCl as above. After the final air drying, 150 μL of methanol was added to the wells, and mixed to allow for dissolution of the crystal violet. The dye solution was then decanted and diluted 1:10 in methanol, then the absorbance at 590 nm was recorded.

[7] = system: S. aureus biofilm; test: Biofilm microscopy (PI/SYTO 9, CLSM); assay type: cell-based; settings: coated microscopy dishes, PI/SYTO 9 staining
Description: 200 μL of freshly prepared coating solution containing 10 mM DOPA-Tet and 2500 U/mL tyrosinase in PBS was added to a glass bottom culture dush. The dish was incubated at room temperature for 6 hours, during which a coating was formed. […] S. aureus was grown overnight in TSB, then diluted 1:100 in TSB containing 3% glucose. 300 μL of the dilute bacteria was added to the microscope dishes, which were then placed in a 37° C. incubator. The samples were incubated for 72 hours, with the media being topped up every day to account for evaporation. The media was decanted and then the dishes were washed with 200 μL of 0.9% NaCl, followed by a 1-hour incubation at room temperature with 250 μL of TSB containing Syto9 (10 μM) and PI (10 μM). The dyes were then decanted and the samples were washed again with saline. Finally, 150 μL of HBSS was added, and the dishes were imaged on a Leica SP8 confocal microscope.

[8] = system: S. aureus; test: Minimum Inhibitory Concentration (MIC) assay; assay type: cell-based; settings: Staphylococcus aureus; in solution, 37° C., 18 to 24 h, n=3
Description: A glycerol stock of S. aureus was struck on a tryptic soy agar plate and incubated overnight at 37° C. Single colonies were then picked and diluted into tryptic soy broth (TSB) and left to grow overnight. Next, the culture was diluted approximately 40-fold into fresh TSB and grown to mid-log phase (OD600=0.4 to 0.8). 5 mg/mL stock solutions of Vancomycin-TCO and vancomycin in DMSO were serially diluted two-fold with TBS across the wells of a non-treated 96-well plate, with concentrations ranging from 0.0625 to 128 μg/mL. The mid-log phase cultures were diluted to a final concentration of 5×10^5 colony forming units (CFU)/mL in TSB then 50 μL was added to each antimicrobial-containing well, giving a final antimicrobial concentration range of 0.031 to 64 μg/mL. All the plates were covered and incubated at 37° C. for 18 to 24 h. The MIC was defined as the lowest compound concentration at which no bacterial growth was visible (n=3).

[9] = Michaelis-Menten kinetics of native and TCO-conjugated ALP (UV-Vis, 405 nm); assay type: biochemical; settings: 5 nM enzyme, p-NPP in TBS 8.5, room temperature
Description: Both assays produce an increase in absorbance at 405 nm, the evolution of which at room temperature was measured on a microplate reader (SpectraMax iD3) over 1 hour. […] These trials were omitted from data analysis. Velocities were estimated by linear regression, and Michaelis-Menten parameters were calculated using both Lineweaver-Burk plots and non-linear least squares regression. R-squared values for all regressions were above 0.95 with the vast majority being above 0.98.

[10] = Stability of grafted enzymes after repeated use; assay type: biochemical; settings: enzymes grafted on DOPA-Tet coated tubes, repeated substrate and buffer incubations with washes
Description: Eight 0.2 mL microcentrifuge tubes were coated with 50 μL of 10 mM DOPA-Tet. The tubes were washed thoroughly with TBS (pH 7.5). Three tubes each were grafted with 50 μL of either 0.1 mM ALP-TCO or 0.1 mM GOx-TCO and 0.1 mM HRP-TCO. The two remaining coated tubes were not grafted with any enzymes. The tubes were washed thoroughly with TBS (pH 7.5). 25 μL of 1 mg/mL p-NPP in TBS (pH 8.5) was added to the ALP-grafted tubes and 25 μL 1 mM ABTS and 1 mM D-glucose in PBS (pH 7.4) was added to the GOX/HRP grafted tubes. Each substrate solution was also added to one of the tubes that was not grafted (for controls). […] Absorbance at 405 nm was measured on a spectrophotometer (Thermo Scientific NanoDropOneC). All tubes were then thoroughly washed with TBS (pH 7.5). Then TBS (pH 8.5) was added to the ALP-grafted tubes and PBS (pH 7.4) was added to the GOX/HRP grafted tubes. Each buffer solution was also added to one of the tubes that was not grafted. […] The buffer solutions were then removed from the tubes. This process of incubating with substrate and then buffer solutions was repeated for all tubes 9 more times, for a total of 10 cycles.

Row | Compound | activity (absorbance at 405 nm) [1] [OD] | activity (absorbance at 405 nm) [2] [OD] | coating stability ([3]; 10% DMSO in PBS) | coating stability ([3]; buffered from pH 4.5 to 8.5) | coating stability ([3]; pH 9.5) | ALP activity on p-NPP after incubation in human serum [4] | growth of S. aureus (planktonic) [5] | biofilm formation (crystal violet, absorbance at 590 nm) [6] | biofilm formation (CLSM) [7] | MIC [8] [µg/mL] | Km ([9]; Lineweaver-Burk plots, read-out: Km by LB) [µM] | Km ([9]; non-linear least squares regression, read-out: Km by nls) [µM] | loss of activity on repeated use (absorbance at 405 nm) [10]
1 | Cc1nnc(-c2ccc(OCCOCCOCCOCCNC(=O)C(N)Cc3ccc(O)c(O)c3)cc2)nn1 (racemic) [DOPA-Tet, (±)-2-amino-3-(3,4-dihydroxyphenyl)-N-(2-(2-(2-(2-(4-(6-methyl-1,2,4,5-tetrazin-3-yl)phenoxy)ethoxy)ethoxy)ethoxy)ethyl)propanamide] | 0.05 | −0.07 | slightly solubilized | No degradation of the coating was observed | delamination and degradation of the coating were observed | did not show any visually detectable activity | not antimicrobial | successfully inhibited biofilm formation | no biofilm was observed |  |  |  | 
2 | CN[C@H](CC(C)C)C(=O)N[C@H]1C(=O)N[C@@H](CC(N)=O)C(=O)N[C@H]2C(=O)N[C@H]3C(=O)N[C@H](C(=O)N[C@H](C(=O)NCCOCCOCCOCCOCCOCCOCCOCCOCCNC(=O)OC4CC/C=C/CCC4)c4cc(O)cc(O)c4-c4cc3ccc4O)[C@H](O)c3ccc(c(Cl)c3)Oc3cc2cc(c3O[C@@H]2O[C@H](CO)[C@@H](O)[C@H](O)[C@H]2O[C@H]2C[C@](C)(N)[C@H](O)[C@H](C)O2)Oc2ccc(cc2Cl)[C@H]1O (some centres unmarked) [vancomycin-TCO] |  |  |  |  |  |  |  |  |  | 16 (≈ 8.02 µM) |  |  | 
3 | ALP: alkaline phosphatase, native enzyme (SEQ ID NO:2) | 1.66 |  |  |  |  |  |  |  |  |  | 281 | 207 | little loss of activity over 10 cycles
